How the values were obtained:
[1] = tested on: dimethylnitrosamine (DMN)-induced liver injury male SD rats; assay: Liver function-improving activities by oral administration in the liver injury model (2); type: in vivo, rat; settings: for Inhibitory activity against liver fibrosis (in words) / Degenerative hepatocyte numbers / Inflammatory cell numbers / Collagen fiber occupied regions: 25 mg/kg oral 4 weeks; for Inhibitory activity against liver fibrosis (in words): histology; for Degenerative hepatocyte numbers / Inflammatory cell numbers: H&E staining of liver; for Degenerative hepatocyte numbers / Inflammatory cell numbers / Collagen fiber occupied regions: autopsy 24 hours after last administration; for Collagen fiber occupied regions: Masson's trichrome staining of liver
Protocol: Specifically, 7-week-old male SD rats (Orient Bio, Korea) were accommodated to the laboratory environment at room temperature for 7 days. General symptoms were observed and then only healthy animals were used for the experiment. The rats were divided into 5 groups (n=10 for each group), i.e., the normal control group, the group to which only DMN is administered, and the group to which both the compound of the present invention (the compound of Example 23, 26, or 29) and DMN are administered. DMN was dissolved in purified water and then administered intraperitoneally at the dose of 10 mg/kg for 3 consecutive days per week (3 times per week, for 4 weeks). Blood samples were collected after the completion of the fourth-week liver injury inducement and then the serum ALT (Alanine Transaminase) values and the serum AST (Aspartate Transaminase) values were measured so as to confirm the liver injury thereof. […] Blood samples were collected on Day 0 (1 day after the completion of the fourth-week liver injury inducement) and Day 7, 14, 21 and 28 after the administration of the test materials. The collected blood was injected into a vacutainer tube containing a clot activator and then allowed to stand at room temperature for about 20 minutes so as to coagulate each blood sample. After centrifugation for 10 minutes, the resulting serums were subjected to blood-biochemical tests. In addition, at 24 hours after the last administration, an autopsy for hepatectomy and fixation was performed to prepare the tissue specimens thereof. After preparing the slides with the tissue specimens, hematoxylin and eosin (H&E) staining was performed thereon for microscopic observation of damages to liver tissue and inflammatory cell infiltrations in liver tissues. In addition, Masson's trichrome staining was also performed thereon for microscopic observation of collagen fiber depositions in liver tissues. The results obtained from the measurements were subject to group comparison, through parametric multiple comparisons or non-parametric multiple comparisons, with SPSS. When P<0.05, it was determined to be statistically significant. […] Therefore, it can be confirmed that the compounds of the present invention have excellent treating activity against liver fibrosis. […] From the results of FIG. 4, the degrees of damage to liver tissue and inflammatory cell infiltration in liver tissues were measured. And also, from the results of FIG. 4, the degree of collagen fiber deposition in liver tissues was measured.

[2] = tested on: dimethylnitrosamine (DMN)-induced liver injury male SD rats; assay: Liver function-improving activities by oral administration in the liver injury model (1); type: in vivo, rat; settings: 25 mg/kg oral once a day with DMN
Protocol: The compounds according to the present invention were orally administered to dimethylnitrosamine (DMN)-induced liver injury male SD rats for 3 weeks, so as to evaluate liver function-improving activities. Specifically, 7-week-old male SD rats (Orient Bio, Korea) were accommodated to the laboratory environment at room temperature for 7 days. General symptoms were observed and then only healthy animals were used for the experiment. […] DMN was dissolved in purified water and then administered intraperitoneally at the dose of 10 mg/kg for 3 consecutive days per week (3 times per week, for 4 weeks). […] The collected blood was injected into a vacutainer tube containing a clot activator and then allowed to stand at room temperature for about 20 minutes so as to coagulate each blood sample. After centrifugation for 10 minutes, the resulting serums were subjected to blood-biochemical tests. The results obtained from the measurements were subject to group comparison, through parametric multiple comparisons or non-parametric multiple comparisons, with SPSS. When P<0.05, it was determined to be statistically significant.

N2a cells = assay: Autophagy flux by electron microscope imaging; type: cell-based, mouse; settings: 10 μM; 24 hours
Protocol: N2a cells (ATCC, CCL-131, mouse neuroblastoma cell line) (3×10^4 cells) and a medium (DMEM (Dulbecco's modified Eagle's medium, Gibco, 11995-065) supplemented with 5% heat-inactivated fetal bovine serum, FBS; Gibco, 16000-044) and 50 μg/ml penicillin-streptomycin (Gibco, 15140-122) were added to each well of a 6-well plate and incubated overnight at 37° C. in a CO2 incubator. The compound of Example 29 (5 μM) and rapamycin (10 μM) were respectively treated and then incubated at 37° C. in a CO2 incubator for 24 hours. Three wells per each group were subject to electron microscope block formation and then pre-fixation, post-fixation, dehydration, substitution, and embedding were carried out according to a flat-embedding method. After ultra-thin sections having a thickness of 70 nm were prepared, heavy metal staining (uranyl acetate, lead citrate) was carried out on the each section, which was photographed through a mosaic imaging technique for imaging the entire cells. In addition, the results obtained by measuring the numbers of the total autophagies (autophagic vesicles), autophagosomes, and autolysosomes per cell according to the treatment groups are shown in Table 3 below. In Table 3 below, the control means the untreated control.

[3] = tested on: primary mouse cortical neuron cells; assay: Autophagic vesicle formation (CYTO-ID Autophagy Detection Kit); type: cell-based; settings: 10 μM; 24 hours; untreated control = 1
Protocol: Autophagy lysosomal pathway (ALP) activation by the compounds of the present invention was verified, through measuring the degree of autophagic vesicle formation in neuron cells with the CYTO-ID™ Autophagy Detection Kit (ENZ-51031-K200, Enzo Life Sciences, Inc.). Neuron cells (i.e., primary mouse cortical neuron cells) were isolated from mice using an enzymatic digest method. Specifically, primary mouse cortical neuron cells were isolated by incubating the cortice tissues derived from 16 day embryonic C57BL6 mice, at 37° C. for 30 minutes, with 20 U/ml papain (Worthington Biochemical Corporation, LK003176) and 0.005% DNase I (Worthington Biochemical Corporation, LK003170).
The primary mouse cortical neuron cells (8×10^4 cells) and a medium (a neural cell culture media containing 2 mM L-glutamine (Gibco, 25030-081), N2 supplement (Gibco, 17502-048), B27 supplement (Gibco, 17504-044), and 50 μg/ml penicillin-streptomycin (Gibco, 15140-122)) were added to each well of a 96-well plate and then incubated overnight at 37° C. in a CO2 incubator. The compound of Example 10 (5 μM), the compound of Example 29 (5 μM), and rapamycin (10 μM) were respectively treated to the cells, which were incubated at 37° C. in a CO2 incubator for 24 hours. After each well was washed with 1×Assay Buffer (Enzo Life Science, ENZ-51031-K200), 0.2 μl of Cyto-ID autophagy dye and 0.1 μl of Hoechst 33342 were treated to the cells, which were incubated at 37° C. in a CO2 incubator for 30 minutes. After each well was washed with 1×Assay Buffer (Enzo Life Science, ENZ-51031-K200), the fluorescence values of Cyto-ID (EX: 480 nm, EM: 530 nm) and Hoechst 33342 (EX: 340 nm, EM: 480 nm) were respectively measured with a fluorometer. Three wells were tested for each group. After normalization was carried out through dividing the Cyto-ID fluorescence value of each well by Hoechst 33342 fluorescence value, each relative intensity was calculated by setting that of the untreated control to 1.

[4] = 0 week (Day 0, after 4 weeks DMN, before administration)
[5] = 1 week, 25 mg/kg oral once a day after 4 weeks DMN
[6] = 2 weeks, 25 mg/kg oral once a day after 4 weeks DMN
[7] = 3 weeks, 25 mg/kg oral once a day after 4 weeks DMN
[8] = 4 weeks, 25 mg/kg oral once a day after 4 weeks DMN
[9] = 0 week (Day 0, before administration)

SMILES	ALT values (average value) [1, 4]	AST values (average value) [1, 4]	Inhibitory activity against liver fibrosis (in words) [1]	ALT values (average value) [1, 5]	AST values (average value) [1, 5]	ALT values (average value) [1, 6]	AST values (average value) [1, 6]	ALT values (average value) [1, 7]	AST values (average value) [1, 7]	ALT values (average value) [1, 8]	AST values (average value) [1, 8]	Degenerative hepatocyte numbers [1]	Inflammatory cell numbers [1]	Collagen fiber occupied regions [1]	ALT values (average value) [2, 9]	AST values (average value) [2, 9]	ALT values (average value) ([2]; 1 week)	AST values (average value) ([2]; 1 week)	ALT values (average value) ([2]; 2 weeks)	AST values (average value) ([2]; 2 weeks)	further results
CCN(CC)CCOc1ccc(-c2nc(C)c(C(=O)NCCN3CCOCC3)s2)cc1C#N.Cl.Cl [Example 26, N-(2-(4-morpholino)ethyl)-2-(4-(2-diethylamino)ethoxy-3-cyanophenyl)-4-methylthiazole-5-carboxamide hydrochloride]	199.51 U/L	322.72 U/L	excellent inhibitory activity against liver fibrosis	134.97 U/L	153.48 U/L	70.09 U/L	145.71 U/L	62.81 U/L	138.76 U/L	59.12 U/L	114.45 U/L	259.14 ± 42.56 cells/1000 cells	90.00 ± 20.67 cells/mm^2	10.75 ± 2.17 %/mm^2	–	–	–	–	–	–	AST value compared with the normal control group (in words) ([1]; 4 weeks after the administration, 25 mg/kg oral): equivalent to that of the normal control group
CCN(CC)CCOc1ccc(-c2nc(C)c(C(=O)NCCN(C(C)C)C(C)C)s2)cc1C#N.Cl.Cl [Example 23, N-(2-(diisopropylamino)ethyl)-2-(4-(2-diethylamino)ethoxy-3-cyanophenyl)-4-methylthiazole-5-carboxamide hydrochloride]	198.30 U/L	395.34 U/L	excellent inhibitory activity against liver fibrosis	104.22 U/L	169.11 U/L	65.66 U/L	140.57 U/L	60.95 U/L	128.30 U/L	52.93 U/L	125.15 U/L	319.14 ± 44.66 cells/1000 cells	101.43 ± 16.53 cells/mm^2	12.44 ± 2.03 %/mm^2	67.64 U/L	145.10 U/L	94.40 U/L	208.56 U/L	97.64 U/L	221.58 U/L	ALT values (average value) ([2]; 3 weeks): 101.04 U/L; AST values (average value) ([2]; 3 weeks): 203.44 U/L
Cc1nc(-c2ccc(OCC(C)C)c(C#N)c2)sc1C(=O)NCCN(C(C)C)C(C)C.Cl [Example 2, N-(2-(diisopropylamino)ethyl)-2-(3-cyano-4-isobutoxyphenyl)-4-methylthiazole-5-carboxamide hydrochloride]	–	–	–	–	–	–	–	–	–	–	–	–	–	–	70.76 U/L	138.50 U/L	93.68 U/L	180.72 U/L	107.06 U/L	218.90 U/L	ALT values (average value) ([2]; 3 weeks): 117.02 U/L; AST values (average value) ([2]; 3 weeks): 231.54 U/L
CO[C@H]1C[C@@H]2CC[C@@H](C)[C@@](O)(O2)C(=O)C(=O)N2CCCC[C@H]2C(=O)O[C@H]([C@H](C)C[C@@H]2CC[C@@H](O)[C@H](OC)C2)CC(=O)[C@H](C)/C=C(\C)[C@@H](O)[C@@H](OC)C(=O)[C@H](C)C[C@H](C)/C=C/C=C/C=C/1C [Rapamycin, rapamycin, reference compound]	–	–	–	–	–	–	–	–	–	–	–	–	–	–	–	–	–	–	–	–	Numbers of the autophagy per cell: Autolysosome (N2a cells): 7.6; Numbers of the autophagy per cell: Autophagic vesicles (N2a cells): 13.3; Numbers of the autophagy per cell: Autophagosome (N2a cells): 4.1; Cyto-ID fluorescence value (relative intensity) [3]: 1.668
